Earlier results, collected in US7739091B2, “Method for estimating protein-protein binding affinities” (The Research Foundation of State University of New York, priority 2006, dated 2010).

Conditions: side chain flanked by peptide bonds, water to n-octanol

| transfer free energy [kcal/mol] | Compound |
| --- | --- |
| -0.8 | N[C@@H](Cc1ccc(O)cc1)C(=O)O [Tyr] |
| 0.95 | C[C@@H](O)[C@H](N)C(=O)O [Thr] |
| 0.92 | N[C@@H](Cc1c[nH]cn1)C(=O)O [His] |
| -1.81 | N[C@@H](Cc1ccccc1)C(=O)O [Phe] |
| 0.85 | N[C@@H](CO)C(=O)O [Ser] |
| 0.87 | C[C@H](N)C(=O)O [Ala] |
